Holding throughout (format): functional, cell-based
For data set [1], the target named is T1, Solute carrier organic anion transporter family member 1B1 (Homo sapiens, UniProt Q9Y6L6).
T1 sequence (Q9Y6L6 whole entry): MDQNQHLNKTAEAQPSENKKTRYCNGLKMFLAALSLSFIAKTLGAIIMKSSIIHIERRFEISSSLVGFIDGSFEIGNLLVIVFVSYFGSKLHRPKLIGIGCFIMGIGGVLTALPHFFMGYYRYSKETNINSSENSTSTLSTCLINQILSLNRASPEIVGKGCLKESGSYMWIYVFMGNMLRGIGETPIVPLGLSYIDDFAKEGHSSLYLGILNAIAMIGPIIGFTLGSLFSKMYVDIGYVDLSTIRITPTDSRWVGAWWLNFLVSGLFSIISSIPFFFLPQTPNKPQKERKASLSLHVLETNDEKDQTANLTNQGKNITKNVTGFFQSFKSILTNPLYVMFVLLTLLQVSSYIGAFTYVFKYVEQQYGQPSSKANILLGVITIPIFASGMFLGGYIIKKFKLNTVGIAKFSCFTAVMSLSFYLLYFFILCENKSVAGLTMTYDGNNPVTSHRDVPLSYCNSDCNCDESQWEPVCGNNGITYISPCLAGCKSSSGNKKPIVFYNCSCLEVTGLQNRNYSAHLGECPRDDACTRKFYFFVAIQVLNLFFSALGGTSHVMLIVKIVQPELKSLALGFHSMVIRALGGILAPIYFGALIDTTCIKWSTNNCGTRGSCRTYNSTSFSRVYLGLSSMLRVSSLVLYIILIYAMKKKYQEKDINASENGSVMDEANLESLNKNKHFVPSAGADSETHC
The experiment in a line: TP_TRANSPORTER: inhibition of Phalloidin uptake (Phalloidin: 1 uM) in OATP-C-expressing HEK293 cells.

Data set [2] concerns the target Canalicular multispecific organic anion transporter 1/Solute carrier organic anion transporter family member 1B1 (Homo sapiens, UniProt Q92887+Q9Y6L6). The experiment in a line: TP_TRANSPORTER: transepithelial transport (basal to apical) of Phalloidin at a concentration of 1 uM in MRP2- and OATP-C-expressing MDCKII cells. To be noted: dog, mdck-ii.
The target of data set [3] is T1, Solute carrier organic anion transporter family member 1B1. Kind of data set: TP_TRANSPORTER: inhibition of Phalloidin uptake (Phalloidin: 1 uM) by alpha-Amanitin at a concentration of 20 u M in OATP-C-expressing HEK293 cells. To be noted: hek293, 20 µM.
Substrate in data set [4]: C[C@@H]1NC(=O)[C@H](C[C@@](C)(O)CO)NC(=O)[C@@H]2Cc3c([nH]c4ccccc34)SC[C@H](NC(=O)[C@@H]([C@H](C)O)NC1=O)C(=O)N1C[C@@H](O)C[C@H]1C(=O)N[C@@H](C)C(=O)N2
Kind of data set: TP_TRANSPORTER: uptake in OATP-C-expressing HEK293 cells.

*1 amine or outer side, *2 acyl side, *3 side chain or, on linkers, in order; H or OH if unused. Where a SMILES comes first, the peptide text is derived from it. Bridges are numbered along the chain shown (N, C = ends). [ ]: non-standard residue; d: D form. Trp(2-yl) = O=C([C@H](Cc1c([*:3])[nH]c2ccccc12)N[*:1])[*:2]; Leu(4R-OH,5-OH) = C[C@](O)(CO)C[C@H](N)C(=O)O; cisHyp = O=C(O)[C@@H]1C[C@H](O)CN1

For the molecule `CC(C)[C@@H]1NC(=O)[C@@H](Cc2ccccc2)NC(=O)[C@H](Cc2ccccc2)NC(=O)[C@@H]2CCCN2C(=O)[C@@H]2CCCN2C(=O)[C@H](Cc2ccccc2)NC(=O)[C@@H](Cc2ccccc2)NC(=O)[C@H](C)NC(=O)[C@@H]2CCCN2C(=O)[C@@H]2CCCN2C1=O` [ANTAMANIDE], 1 µM corresponded to half-maximal inhibition in data set [1] (IC50).

For `C[C@@H]1NC(=O)[C@H](C[C@@](C)(O)CO)NC(=O)[C@@H]2Cc3c([nH]c4ccccc34)SC[C@H](NC(=O)[C@@H]([C@H](C)O)NC1=O)C(=O)N1C[C@@H](O)C[C@H]1C(=O)N[C@@H](C)C(=O)N2` [PHALLOIDIN] (cyclo(A[dT]C[cisHyp]A[Trp(2-yl)][Leu(4R-OH,5-OH)]); thioether 3-6), in data set [2], the Activity result was “substrate [+]”.

With `CO[C@H]1C[C@@H]2CC[C@@H](C)[C@@](O)(O2)C(=O)C(=O)N2CCCC[C@H]2C(=O)O[C@H]([C@H](C)C[C@@H]2CC[C@@H](O)[C@H](OC)C2)CC(=O)[C@H](C)/C=C(\C)[C@@H](O)[C@@H](OC)C(=O)[C@H](C)C[C@H](C)/C=C/C=C/C=C/1C` [SIROLIMUS], the IC50 (commonly the concentration that inhibits the measured activity by half) in data set [1] stood at 1.1 µM.

With `O=C1OC(c2ccc(O)c(S(=O)(=O)O)c2)(c2ccc(O)c(S(=O)(=O)O)c2)c2c(Br)c(Br)c(Br)c(Br)c21` [SULFOBROMOPHTHALEIN SODIUM], the IC50 in data set [1] was 0.05 µM.

With `C=CC[C@@H]1/C=C(\C)C[C@H](C)C[C@H](OC)[C@H]2O[C@@](O)(C(=O)C(=O)N3CCCC[C@H]3C(=O)O[C@H](/C(C)=C/[C@@H]3CC[C@@H](O)[C@H](OC)C3)[C@H](C)[C@@H](O)CC1=O)[C@H](C)C[C@@H]2OC` [TACROLIMUS ANHYDROUS], the IC50 in data set [1] amounted to 3.7 µM.

For `CC[C@H](C)[C@@H]1NC(=O)CNC(=O)[C@@H]2Cc3c([nH]c4cc(O)ccc34)[S+]([O-])C[C@@H](NC(=O)CNC1=O)C(=O)N[C@@H](CC(N)=O)C(=O)N1C[C@H](O)C[C@H]1C(=O)N[C@@H]([C@@H](C)[C@@H](O)CO)C(=O)N2` (stereo partly drawn) [alpha-Amanitin], the Activity entry in data set [3] is “is not an inhibitor [-]”.

B1: Solute carrier organic anion transporter family member 1B1 (Homo sapiens) (protein)
chain: MDQNQHLNKTAEAQPSENKKTRYCNGLKMFLAALSLSFIAKTLGAIIMKSSIIHIERRFEISSSLVGFIDGSFEIGNLLVIVFVSYFGSKLHRPKLIGIGCFIMGIGGVLTALPHFFMGYYRYSKETNINSSENSTSTLSTCLINQILSLNRASPEIVGKGCLKESGSYMWIYVFMGNMLRGIGETPIVPLGLSYIDDFAKEGHSSLYLGILNAIAMIGPIIGFTLGSLFSKMYVDIGYVDLSTIRITPTDSRWVGAWWLNFLVSGLFSIISSIPFFFLPQTPNKPQKERKASLSLHVLETNDEKDQTANLTNQGKNITKNVTGFFQSFKSILTNPLYVMFVLLTLLQVSSYIGAFTYVFKYVEQQYGQPSSKANILLGVITIPIFASGMFLGGYIIKKFKLNTVGIAKFSCFTAVMSLSFYLLYFFILCENKSVAGLTMTYDGNNPVTSHRDVPLSYCNSDCNCDESQWEPVCGNNGITYISPCLAGCKSSSGNKKPIVFYNCSCLEVTGLQNRNYSAHLGECPRDDACTRKFYFFVAIQVLNLFFSALGGTSHVMLIVKIVQPELKSLALGFHSMVIRALGGILAPIYFGALIDTTCIKWSTNNCGTRGSCRTYNSTSFSRVYLGLSSMLRVSSLVLYIILIYAMKKKYQEKDINASENGSVMDEANLESLNKNKHFVPSAGADSETHC
In the case of B1, the Km (usually the concentration of substrate that gives half-maximal velocity) in data set [4] turned out to be 39 µM.

The values are drawn from ChEMBL document CHEMBL2074164, “Characterization of the transport of the bicyclic peptide phalloidin by human hepatic transport proteins” (Naunyn Schmiedebergs Arch Pharmacol, 2003).
